One data set concerns HCV. As to conditions: cited from earlier work.

As to interferon alfa 2b, the “response rate (measured by major fall in HCV levels)” value with HCV (administered parenterally for up to 6 months) is listed as roughly 25%.
As for `NC(=O)c1ncn([C@@H]2O[C@H](CO)[C@@H](O)[C@H]2O)n1` [Ribavirin, ribavirin], the virologic response entry with hepatitis C (Example A: lower doses of ribavirin (less than 400 mg/day or less than 6 mg/kg/day), slow-release, with 3 million IU Intron A once weekly) was “sustained virologic response”. Also, the “therapeutic response versus conventional or systemic doses” value in the data set with hepatitis C (Example B: higher doses of ribavirin (600 mg/day), slow-release, with 3 million IU Intron A once weekly) is “more complete or faster therapeutic response”. In addition, the “side effects versus conventional or systemic doses” value with hepatitis C (human, in vivo) is “lower side effects”. The “effect on HCV viral load or hepatic histology” value in the data set on HCV (given as monotherapy, orally) was “no effect”.

Source of the values: US20070202078A1, “Method Of Treating Viral Infections” (priority 2003, published 2007).
